According to ChEMBL document CHEMBL3045556, “Effect of temperature on the toxicity of several insecticides to Apolygus lucorum (Heteroptera: Miridae)” (2012):
Converted amounts (≈) assume the structure as drawn.

How the values were obtained:
Assay type in all cases: functional
Apolygus lucorum [1] = assay: Ratio of LC50 for third-instar Apolygus lucorum reared in asparagus bean pod at 35 degC to LC50 for third-instar Apolygus lucorum reared in asparagus bean pod at 15 degC
Apolygus lucorum [2] = assay: Insecticidal activity against third-instar Apolygus lucorum reared in asparagus bean pod assessed as mortality administered by dipping pods in compound solution measured after 48 hr at 25 degC
Apolygus lucorum [3] = assay: Ratio of LC50 for third-instar Apolygus lucorum reared in asparagus bean pod at 30 degC to LC50 for third-instar Apolygus lucorum reared in asparagus bean pod at 15 degC
Apolygus lucorum [4] = assay: Insecticidal activity against third-instar Apolygus lucorum reared in asparagus bean pod assessed as mortality administered by dipping pods in compound solution measured after 48 hr at 30 degC
Apolygus lucorum [5] = assay: Insecticidal activity against third-instar Apolygus lucorum reared in asparagus bean pod assessed as mortality administered by dipping pods in compound solution measured after 48 hr at 35 degC
Apolygus lucorum [6] = assay: Ratio of LC50 for third-instar Apolygus lucorum reared in asparagus bean pod at 20 degC to LC50 for third-instar Apolygus lucorum reared in asparagus bean pod at 15 degC
Apolygus lucorum [7] = assay: Insecticidal activity against third-instar Apolygus lucorum reared in asparagus bean pod assessed as mortality administered by dipping pods in compound solution measured after 48 hr at 15 degC
Apolygus lucorum [8] = assay: Insecticidal activity against third-instar Apolygus lucorum reared in asparagus bean pod assessed as mortality administered by dipping pods in compound solution measured after 48 hr at 20 degC
Apolygus lucorum [9] = assay: Ratio of LC50 for third-instar Apolygus lucorum reared in asparagus bean pod at 25 degC to LC50 for third-instar Apolygus lucorum reared in asparagus bean pod at 15 degC
Apolygus lucorum [10] = assay: Ratio of LC50 for third-instar Apolygus lucorum reared in asparagus bean pod at 15 degC to LC50 for third-instar Apolygus lucorum reared in asparagus bean pod at 35 degC
Apolygus lucorum [11] = assay: Ratio of LC50 for third-instar Apolygus lucorum reared in asparagus bean pod at 15 degC to LC50 for third-instar Apolygus lucorum reared in asparagus bean pod at 30 degC
Apolygus lucorum [12] = assay: Ratio of LC50 for third-instar Apolygus lucorum reared in asparagus bean pod at 15 degC to LC50 for third-instar Apolygus lucorum reared in asparagus bean pod at 25 degC
Apolygus lucorum [13] = assay: Ratio of LC50 for third-instar Apolygus lucorum reared in asparagus bean pod at 15 degC to LC50 for third-instar Apolygus lucorum reared in asparagus bean pod at 20 degC

| SMILES | RatioLC50 (Apolygus lucorum [1]) | LC50 (Apolygus lucorum [2]) [µg/mL] | RatioLC50 (Apolygus lucorum [3]) | LC50 (Apolygus lucorum [4]) [µg/mL] | LC50 (Apolygus lucorum [5]) [µg/mL] | RatioLC50 (Apolygus lucorum [6]) | LC50 (Apolygus lucorum [7]) [µg/mL] | LC50 (Apolygus lucorum [8]) [µg/mL] | RatioLC50 (Apolygus lucorum [9]) | RatioLC50 (Apolygus lucorum [10]) | RatioLC50 (Apolygus lucorum [11]) | RatioLC50 (Apolygus lucorum [12]) | RatioLC50 (Apolygus lucorum [13]) |
| --- | --- | --- | --- | --- | --- | --- | --- | --- | --- | --- | --- | --- | --- |
| CC1(C)C(/C=C(\Cl)C(F)(F)F)C1C(=O)O[C@@H](C#N)c1cccc(Oc2ccccc2)c1 (some centres not stated) [GAMA-CYHALOTHRIN] | 3.76 | 27.96 (≈ 62.2 µM) | 2.86 | 72.22 (≈ 161 µM) | 95.03 (≈ 211 µM) | 1.01 | 25.28 (≈ 56.2 µM) | 25.6 (≈ 56.9 µM) | 1.11 |  |  |  |  |
| O=[N+]([O-])/N=C1\NCCN1Cc1ccc(Cl)nc1 [IMIDACLOPRID] |  | 1025.9 (≈ 4010 µM) |  | 238.47 (≈ 933 µM) | 148.05 (≈ 579 µM) |  | 3324.02 (≈ 13000 µM) | 1507.97 (≈ 5900 µM) |  | 22.45 | 13.94 | 3.24 | 2.2 |
| CC1(C)[C@H](C=C(Cl)Cl)[C@H]1C(=O)O[C@@H](C#N)c1cccc(Oc2ccccc2)c1 [BETA-CYPERMETHRIN] | 51.35 | 11.83 (≈ 28.4 µM) | 70.27 | 28.44 (≈ 68.3 µM) | 20.78 (≈ 49.9 µM) | 36.72 | 0.4 (≈ 0.961 µM) | 14.86 (≈ 35.7 µM) | 29.23 |  |  |  |  |
| CNC(=O)ON=C(C)SC [METHOMYL] | 1.52 | 895.41 (≈ 5520 µM) | 2.3 | 1108.75 (≈ 6840 µM) | 731.98 (≈ 4510 µM) | 1.17 | 482.96 (≈ 2980 µM) | 564.28 (≈ 3480 µM) | 1.85 |  |  |  |  |
| CCCCN(CCCC)SN(C)C(=O)Oc1cccc2c1OC(C)(C)C2 [CARBOSULFAN] |  | 199.4 (≈ 524 µM) |  | 246.4 (≈ 647 µM) | 156.75 (≈ 412 µM) |  | 274.15 (≈ 720 µM) | 116.07 (≈ 305 µM) |  | 1.75 | 1.12 | 1.37 | 2.36 |
| CCOP(=S)(OCC)O/N=C(\C#N)c1ccccc1 [PHOXIM] |  | 237.93 (≈ 798 µM) |  | 196.5 (≈ 659 µM) | 173.53 (≈ 582 µM) |  | 198.24 (≈ 665 µM) | 156.17 (≈ 524 µM) | 1.2 | 1.14 | 1.01 |  | 1.27 |
| N#Cc1nn(-c2c(Cl)cc(C(F)(F)F)cc2Cl)c(N)c1[S+]([O-])C(F)(F)F (configuration not stated) [FIPRONIL] |  | 0.72 (≈ 1.65 µM) |  | 0.33 (≈ 0.755 µM) | 0.1 (≈ 0.229 µM) | 5.76 | 0.34 (≈ 0.778 µM) | 1.69 (≈ 3.87 µM) | 2.12 | 3.4 | 1.03 |  |  |
| C/C(=N\C#N)N(C)Cc1ccc(Cl)nc1 [ACETAMIPRID] |  | 420.95 (≈ 1890 µM) |  | 264.02 (≈ 1190 µM) | 181.95 (≈ 817 µM) |  | 1613.76 (≈ 7250 µM) | 972.05 (≈ 4370 µM) |  | 8.87 | 6.11 | 3.83 | 1.66 |
